Values joined by “and” are separate entries in the source; they are usually repeats but may differ in a detail not shown here. Equal values may be shown once. Read-outs that look alike come from different tables or passages of the source.
Legend:
[1] = test system: glycine modulatory site of the NMDA receptor-channel complex; type: cell-based, rat; conditions: for Effect on glycine-potentiated NMDA-induced current: gabapentin 10 μM with glycine 1 μM and strychnine 10 μM, reversed on washing; for Effect on glycine-potentiated NMDA-induced current / Effect on NMDA-induced current in the absence of glycine: acetic acid; for Effect on NMDA-induced current in the absence of glycine: gabapentin 10 μM, bath application, reversed on washing for four minutes
Method: Whole-cell patch clamp techniques were employed to investigate the effects of the antiepileptic drug, gabapentin, upon the responses of striatal neurons in dissociated culture to NMDA.
Striata were aseptically dissected from 16-day-old rat fetuses and mechanically triturated in enzyme-free Puck's saline (Gibco, UK). The resulting suspension was diluted to 1×10^6 cells/mL using freshly prepared medium. The medium was composed of Minimal essential medium with Earle's salts and included Fetal calf serum (5% v/v), Horse serum (5% v/v), L-Glutamine (2 mM), Insulin ([…]), and HEPES (5 mM) buffer (all Gibco, UK).
The cells were plated onto Poly-L-ornithine ([…]; Sigma) coated glass coverslips (diameter 13 mm) and incubated at 37° C. in a humidified atmosphere of 95% Air/5% CO2.
After seven days, the media was replaced with freshly prepared media containing (+)-5-fluoro-deoxyuridine (10 μM; Sigma) to inhibit the proliferation of nonneuronal elements. Cultures were subsequently fed twice weekly.
Patch electrodes with ohmic resistances of 6-10 M .OMEGA. were filled with an intracellular solution of the following composition (all mM); CsF 140.0, CaCl2 0.5, NaCl 1.0, K-EGTA 5.0 and HEPES 10.0. All recordings were made at 20°-22° C. using a List EPC7 amplifier and the resulting signal was filtered at 10 KHz. Fast and slow transient capacity compensation was employed, and cells were voltage clamped at a holding potential of -70 mV, unless otherwise stated.
Drugs were dissolved to a known concentration in the extracellular solution and were applied via the perfusion system. NMDA was applied via the perfusion system, or by rapid pressure ejection. All drugs were obtained from Sigma, except gabapentin which was synthesized at Goedecke (Warner-Lambert) Germany.

[2] = test system: NMDA receptor-channel complex; test: Intracellular recording of NMDA-induced depolarization, paraventricular thalamus (PVT) neurones in brain slices; type: cell-based, rat; conditions: gabapentin 300 μM
Method: (§1) Intracellular recordings were made from neurones of either paraventricular thalamus (n =8, 7 slices) or CA1 region of the hippocampus (n =5, 5 slices) contained in […] rat brain slices. NMDA applied via the perfusion system, produced a concentration-dependent depolarization of all neurones tested. In every case but one, control response to NMDA was reduced by a concomitant application of gabapentin (300 μM). The concentration-response curves for NMDA in the presence and absence of gabapentin show a noncompetitive interaction of gabapentin with NMDA receptor-channel complex.
(§2) Coronal slices of rat brain at the level of the ventromedial hypothalamus were chosen since these contain both hippocampus and paraventricular thalamus (PVT). Slices were perfused in normal (1.3 mM magnesium) artificial cerebrospinal fluid (ACSF) at 3 mL/min. Conventional intracellular recording techniques were employed, using 1M potassium acetate-filled electrodes pulled on a Brown-Flaming microelectrode puller type P-87.
Drugs were made up as stock solutions in distilled water (NMDA 50 mM; gabapentin 100 mM) and stored frozen prior to use. The required concentrations of each drug were obtained by direct dilution with ACSF at the time of the experiment. Control dose-response curves for NMDA were obtained either in the presence or absence of tetrodotoxin (TTX). NMDA was applied to a 30-second period, with at least five minutes between successive doses. Gabapentin was added to the same NMDA-containing solutions and the dose-response curves repeated. Experiments were also performed using repeated single doses of NMDA to ensure that the effects of gabapentin were not due to rundown of the NMDA response.

[3] = test system: NMDA receptor-channel complex; test: Intracellular recording of NMDA-induced depolarization, CA1 hippocampal neurones in brain slices; type: cell-based, rat; conditions: gabapentin 300 μM
Method: as §1, §2
Drugs were made up as stock solutions in distilled water (NMDA 50 mM; gabapentin 100 mM) and stored frozen prior to use. The required concentrations of each drug were obtained by direct dilution with ACSF at the time of the experiment. Control dose-response curves for NMDA were obtained either in the presence or absence of tetrodotoxin (TTX). […]

[4] = test system: seizures elicited by 4-aminobutanoic acid (GABA) synthesis or GABA receptor antagonists; conditions: mice; cited from earlier work
[5] = test system: seizures elicited by NMDA; conditions: in vivo; cited from earlier work
GABA = conditions: cited from earlier work
GABAB = conditions: cited from earlier work
neuronal GABA uptake = conditions: cited from earlier work
[6] = in vivo; cited from earlier work
[7] = in vivo; cited from earlier work; remark: listed apart in the source

NCC1(CC(=O)O)CCCCC1 [gabapentin, 1-aminomethyl-cyclohexane acetic acid]
Peak Inward Current (pA), relative to NMDA = 100% ([1]; Table 2, NMDA + 10 μM GABA-P, no exogenous glycine, n = 4): 305 ± 88% | Peak Inward Current (pA), relative to NMDA = 100% ([1]; Table 2, NMDA after 'wash' of 10 μM GABA-P, n = 4): 106 ± 9% | Peak Inward Current (pA), relative to NMDA = 100% ([1]; Table 3, 'wash' of GABA-P, NMDA + 1 μM Glycine + 10 μM Strychnine, n = 3): 257 ± 418% | Peak Inward Current (pA), relative to NMDA = 100% ([1]; Table 3, NMDA + 1 μM Glycine + 10 μM Strychnine + 10 μM GABA-P, n = 3): 201 ± 24% | Effect on glycine-potentiated NMDA-induced current [1]: antagonism of the glycine-induced potentiation of the NMDA-induced current | Effect on glycine-potentiated NMDA-induced current ([1]; listed as Gabapentin): antagonism of the glycine-potentiated NMDA current | Effect on NMDA-induced current in the absence of glycine [1]: potentiation of the NMDA-induced current | Effect on NMDA-induced current in the absence of glycine ([1]; listed as Gabapentin): reversible potentiation of the NMDA-induced current | Reduction of NMDA depolarization ([2]; 100 μM NMDA for 30 s, TTX present, thalamic neurones (FIG. 5)): ~60% | Nature of the block of the NMDA response ([2]; NMDA dose-response curves, PVT neurones (FIG. 6B)): noncompetitive | Effect on response (depolarization) to NMDA ([2]; high (30 to 50 μM) concentrations of NMDA, PVT neurones): reduced | Effect on NMDA-induced depolarization ([3]; CA1 hippocampal neurones, more evident as NMDA concentration increased): reduction in the NMDA-induced depolarization | Nature of the block of the NMDA response ([3]; NMDA dose-response curves, hippocampus (FIG. 8B)): noncompetitive | Protection from seizures [4]: protect mice from seizures | Latency of onset of seizures elicited by NMDA [5]: prolong the latency of onset of seizures | Displacement of GABA binding (GABA): does not displace | Displacement of GABAB binding (GABAB): does not displace | Interference with neuronal GABA uptake (neuronal GABA uptake): does not interfere with neuronal GABA uptake | Metabolism in the body [6]: not metabolized in the body | Tolerability [7]: well tolerated | Toxicity [7]: relatively nontoxic

NCC(=O)O [Glycine, reference compound]
Effect of glycine on NMDA-induced peak current [1]: potentiation of the NMDA induced peak current | Effect of glycine on sustained inward current produced by bath application of NMDA ([1]; NMDA 100 μM bath application, glycine 1 μM): markedly potentiated | Peak Inward Current (pA), relative to NMDA = 100% ([1]; striatal neurons): 589 ± 156% and 713 ± 260%

From patent publication US5084479A, “Novel methods for treating neurodegenerative diseases” (priority 1990, dated 1992)
